From the NIST ThermoML archive (doi:10.1021/acs.jced.7b00427)

Conditions: Gas, Buoyancy - hydrostatic balance with magnetic suspension - one sinker

C=C(F)C(F)(F)F [2,3,3,3-tetrafluoro-1-propene]
Conditions | mass density [kg/m3]
252.64 K, 70 kPa | 3.88
252.64 K, 110 kPa | 6.265
252.64 K, 124 kPa | 7.097
262.07 K, 81 kPa | 4.341
262.08 K, 113 kPa | 6.19
262.08 K, 136 kPa | 7.456
262.08 K, 157 kPa | 8.696
262.08 K, 169 kPa | 9.424
270.18 K, 105 kPa | 5.505
270.18 K, 132 kPa | 6.952
270.18 K, 172 kPa | 9.215
270.18 K, 232 kPa | 12.71
270.19 K, 256 kPa | 14.125
279.64 K, 75 kPa | 3.732
279.65 K, 118 kPa | 5.957
279.65 K, 168 kPa | 8.6
279.65 K, 219 kPa | 11.398
279.66 K, 261 kPa | 13.822
279.66 K, 302 kPa | 16.231
279.67 K, 352 kPa | 19.153
289.17 K, 279 kPa | 14.228
289.17 K, 433 kPa | 23.141
289.18 K, 186 kPa | 9.245
289.18 K, 223 kPa | 11.205
289.18 K, 344 kPa | 17.869
289.18 K, 502 kPa | 27.513
289.19 K, 84 kPa | 4.052
289.19 K, 143 kPa | 7.017
298.63 K, 249 kPa | 12.098
298.63 K, 312 kPa | 15.415
298.63 K, 363 kPa | 18.154
298.63 K, 419 kPa | 21.272
298.63 K, 599 kPa | 32.147
298.63 K, 647 kPa | 35.336
298.64 K, 134 kPa | 6.319
298.64 K, 204 kPa | 9.779
308.12 K, 125 kPa | 5.711
308.12 K, 242 kPa | 11.284
308.13 K, 188 kPa | 8.693
308.13 K, 282 kPa | 13.311
308.13 K, 367 kPa | 17.655
308.13 K, 460 kPa | 22.624
308.14 K, 517 kPa | 25.797
308.14 K, 551 kPa | 27.714
308.14 K, 608 kPa | 31.08
308.14 K, 741 kPa | 39.419
317.63 K, 418 kPa | 19.56
317.63 K, 514 kPa | 24.547
317.63 K, 613 kPa | 30.022
317.63 K, 892 kPa | 46.934
317.64 K, 202 kPa | 9.037
317.64 K, 351 kPa | 16.204
317.66 K, 116 kPa | 5.083
317.66 K, 166 kPa | 7.365
327.25 K, 522 kPa | 23.936
327.25 K, 597 kPa | 27.809
327.25 K, 825 kPa | 40.447
327.25 K, 1152 kPa | 61.545
327.26 K, 299 kPa | 13.167
327.26 K, 372 kPa | 16.57
327.26 K, 463 kPa | 20.996
327.27 K, 97 kPa | 4.113
327.27 K, 153 kPa | 6.549
327.27 K, 235 kPa | 10.227
336.67 K, 110 kPa | 4.549
336.67 K, 321 kPa | 13.728
336.67 K, 424 kPa | 18.45
336.67 K, 501 kPa | 22.051
336.67 K, 618 kPa | 27.852
336.67 K, 667 kPa | 30.331
336.67 K, 693 kPa | 31.586
336.67 K, 873 kPa | 41.236
336.67 K, 1254 kPa | 64.685
336.67 K, 1683 kPa | 100.038
336.68 K, 237 kPa | 10.013
345.74 K, 1557 kPa | 81.658
345.74 K, 1910 kPa | 112.152
345.75 K, 517 kPa | 21.914
345.75 K, 739 kPa | 32.609
345.75 K, 886 kPa | 40.193
345.75 K, 1229 kPa | 59.662
345.76 K, 145 kPa | 5.863
345.76 K, 305 kPa | 12.598
